In the NIST ThermoML archive (doi:10.1016/j.jct.2016.02.017):
± gives the expanded uncertainty stated by the source.

Assay: Boiling temperature at pressure P
Conditions: Liquid, Ebulliometric method (Recirculating still)

In the case of `O` [water], the “Boiling temperature at pressure P” value (12.1 kPa) is reported as 50.7 ± 4 °C, the “Boiling temperature at pressure P” value (25.8 kPa) is reported as 67.2 ± 4 °C and the “Boiling temperature at pressure P” value (41.8 kPa) is reported as 78.7 ± 4 °C. For the same molecule, the “Boiling temperature at pressure P” value (59.7 kPa) was 85.5 ± 4 °C, the “Boiling temperature at pressure P” value (74.1 kPa) was 91.2 ± 4 °C and the “Boiling temperature at pressure P” value (91.8 kPa) was 97.7 ± 4 °C.
